We go through 21 compounds from US9630957B2, “2,3-butanediamide epoxide compound and preparation method and use thereof” (Institute of Pharmacology and Toxicology Academy of …, priority 2014, dated 2017).

In data set [1] the test system is enterovirus EV71 (BrCr strain). Nature of the data set: Activity screening for anti-enterovirus EV71: inhibition of cytopathic effect in Vero cells. It is filed as cell-based. The conditions noted are these: for IC50: 100TCID50, Vero cells, CPE read when virus control reaches 4+, read-out: IC50 (half inhibitory concentration for enterovirus EV71); for SI (Selectivity Index = TC50/IC50): Vero cells. The method, then: Test item: Activity screening of the compounds for anti-enterovirus EV71
Test principle: Vero cells are used as viral host. The inhibition of the compound of the invention on the degree of cytopathic effect of Vero cells caused by enterovirus virus EV71 is determined.
1. Virus strain: enterovirus EV71 (BrCr, American Type Culture Collection, ATCC)
(§1) 2. Sample treatment: the compounds of the present invention are dissolved in DMSO or diluent to prepare stock solution which is stored at −20° C. The stock solution is formulated to suitable incipient concentration with culture solution immediately before use, and then 3-fold diluted with the culture solution, 8 degrees of dilution each.
3. Positive control drug: Pirodavir (LGM Pharma), which is a broad-spectrum anti-viral inhibitor.
(§2) 4. Test Method: Vero cells are seeded into a 96-well culture plate, at 5% CO2, and cultured at 37° C. for 16 hours. The Vero cells are added with different dilutions of drugs, and the degree of cytopathic effect (CPE) in each group is observed. The half toxic concentration (TC50) of each sample for Vero cells is calculated. Vero cells are added with 100TCID50 enterovirus EV71 respectively, and the virus solution is discarded after adsorption at 37° C. for 1 hour, and then drugs with various degrees of dilution are added respectively. Virus control and cell control are set and incubated at 37° C. The degree of cytopathic effect (CPE) in each group is observed when the degree of cytopathic effect (CPE) of virus control group reaches 4+. The half inhibitory concentration (IC50) of each sample for enterovirus EV71 are calculated. Selectivity Index (SI) is calculated according to the following equation: SI=TC50/IC50.

The next data set has as its system Vero cells. Briefly: Cytotoxicity of the compounds for Vero cells (CPE observation, TC50). It is filed as cell-based. The conditions noted are these: no virus. The method, then: as §1, §2

In brackets after ≈: the same amount, converted by molar mass. Some results are limits rather than exact numbers.

Consider `COc1ccc(NC(=O)[C@H]2O[C@@H]2C(=O)N(Cc2ccccc2)c2ccccc2)cc1OC` [Compound 1, (2S,3S)—N^2-benzyl-N^2-phenyl-N^3-(3,4-dimethoxyphenyl)-2,3-epoxybutanediamide], for which the melting point fell in the range of 156.5 to 157.2 °C. Further, the IC50 in data set [1] was > 2.47 mg/L. Moreover, the “TC50 (half toxic concentration for Vero cells)” value in the data set on Vero cells worked out at 10.68 mg/L.

`O=C(Nc1nccs1)[C@H]1O[C@@H]1C(=O)N(Cc1ccccc1)c1ccccc1` [Compound 2, (2S,3S)—N^2-benzyl-N^2-phenyl-N^3-(2-thiazolyl)-2,3-epoxybutanediamide] gave a melting point of 146.6 to 147.4 °C. In addition, in data set [1], the IC50 is 2.47 mg/L (≈ 6.51 µM) and the “SI (Selectivity Index = TC50/IC50)” value worked out at 4.32. The “TC50 (half toxic concentration for Vero cells)” value in the data set with Vero cells stood at 10.68 mg/L.

Regarding `O=C(Nc1ccc(Cl)c(Cl)c1)[C@H]1O[C@@H]1C(=O)N(Cc1ccccc1)c1ccccc1` [Compound 3, (2S,3S)—N^2-benzyl-N^2-phenyl-N^3-(3,4-dichlorophenyl)-2,3-epoxybutanediamide], the melting point lay in the range of 174.5 to 175.7 °C. Also, in data set [1], the IC50 turned out to be 2.47 mg/L (≈ 5.6 µM) and the “SI (Selectivity Index = TC50/IC50)” value was 2.08. In the data set with Vero cells, the “TC50 (half toxic concentration for Vero cells)” value was 5.14 mg/L.

Compound `O=C(Nc1cccc(F)c1)[C@H]1O[C@@H]1C(=O)N(Cc1ccccc1)c1ccccc1` [Compound 4, (2S,3S)—N^2-benzyl-N^2-phenyl-N^3-(3-fluorophenyl)-2,3-epoxybutanediamide] yielded a melting point of 180.5 to 182 °C. In data set [1], the IC50 is 2.47 mg/L (≈ 6.33 µM) and the “SI (Selectivity Index = TC50/IC50)” value was found to be 3.00. In the data set on Vero cells, the “TC50 (half toxic concentration for Vero cells)” value is 7.41 mg/L.

Regarding `O=C(Nc1ccc(F)cc1)[C@H]1O[C@@H]1C(=O)N(Cc1ccccc1)c1ccccc1` [Compound 5, (2S,3S)—N^2-benzyl-N^2-phenyl-N^3-(4-fluorophenyl)-2,3-epoxybutanediamide], the melting point lay within 153.8 to 154.7 °C. Besides, in data set [1], the IC50 was 2.47 mg/L (≈ 6.33 µM) and the “SI (Selectivity Index = TC50/IC50)” value was 4.32. Also, the “TC50 (half toxic concentration for Vero cells)” value with Vero cells worked out at 10.68 mg/L.

`O=C(Nc1ccccc1F)[C@H]1O[C@@H]1C(=O)N(Cc1ccccc1)c1ccccc1` [Compound 6, (2S,3S)—N^2-benzyl-N^2-phenyl-N^3-(2-fluorophenyl)-2,3-epoxybutanediamide]: the melting point fell in the range of 139.2 to 140.3 °C. For the same compound, in data set [1], the IC50 came to 0.82 mg/L (≈ 2.1 µM) and the “SI (Selectivity Index = TC50/IC50)” value turned out to be 5.22. Further, in the data set on Vero cells, the “TC50 (half toxic concentration for Vero cells)” value came to 4.28 mg/L.

In the case of `COc1cccc(NC(=O)[C@H]2O[C@@H]2C(=O)N(Cc2ccccc2)c2ccccc2)c1` [Compound 7, (2S,3S)—N^2-benzyl-N^2-phenyl-N^3-(3-methoxyphenyl)-2,3-epoxybutanediamide], the melting point lay within 130.7 to 131.7 °C. Moreover, in data set [1], the IC50 turned out to be 0.27 mg/L (≈ 0.671 µM) and the “SI (Selectivity Index = TC50/IC50)” value is 15.85. In addition, the “TC50 (half toxic concentration for Vero cells)” value with Vero cells was 4.28 mg/L.

`O=C(Nc1cccc(Cl)c1)[C@H]1O[C@@H]1C(=O)N(Cc1ccccc1)c1ccccc1` [Compound 8, (2S,3S)—N^2-benzyl-N^2-phenyl-N^3-(3-chlorophenyl)-2,3-epoxybutanediamide] yielded a melting point of 179.2 to 179.6 °C. In addition, in data set [1], the IC50 stood at 0.27 mg/L (≈ 0.664 µM) and the “SI (Selectivity Index = TC50/IC50)” value is recorded as 15.85. The “TC50 (half toxic concentration for Vero cells)” value in the data set on Vero cells is 4.28 mg/L.

`O=C(Nc1ccc([N+](=O)[O-])cc1)[C@H]1O[C@@H]1C(=O)N(Cc1ccccc1)c1ccccc1` [Compound 9, (2S,3S)—N^2-benzyl-N^2-phenyl-N^3-(4-nitrophenyl)-2,3-epoxybutanediamide] came in with a melting point of 160.2 to 161.3 °C. In addition, in data set [1], the IC50 amounted to 0.82 mg/L (≈ 1.96 µM) and the “SI (Selectivity Index = TC50/IC50)” value is 5.22. In the data set with Vero cells, the “TC50 (half toxic concentration for Vero cells)” value came to 4.28 mg/L.

In turn, `O=C(Nc1cccc(Cl)c1Cl)[C@H]1O[C@@H]1C(=O)N(Cc1ccccc1)c1ccccc1` [Compound 10, (2S,3S)—N^2-benzyl-N^2-phenyl-N^3-(2,3-dichlorophenyl)-2,3-epoxybutanediamide] returned a melting point of 115.7 to 115.8 °C. In data set [1], the IC50 is 0.15 mg/L (≈ 0.34 µM) and the “SI (Selectivity Index = TC50/IC50)” value is given as 9.53. For the same compound, in the data set with Vero cells, the “TC50 (half toxic concentration for Vero cells)” value was 1.43 mg/L.

As for `O=C(Nc1ccccc1Cl)[C@H]1O[C@@H]1C(=O)N(Cc1ccccc1)c1ccccc1` [Compound 11, (2S,3S)—N^2-benzyl-N^2-phenyl-N^3-(2-chlorophenyl)-2,3-epoxybutanediamide], the melting point was 117.3 to 118.2 °C. Moreover, in data set [1], the IC50 was 0.15 mg/L (≈ 0.369 µM) and the “SI (Selectivity Index = TC50/IC50)” value is 9.53. Also, the “TC50 (half toxic concentration for Vero cells)” value in the data set on Vero cells was 1.43 mg/L.

As for `O=C(Nc1ccc(Cl)cc1)[C@H]1O[C@@H]1C(=O)N(Cc1ccccc1)c1ccccc1` [Compound 12, (2S,3S)—N^2-benzyl-N^2-phenyl-N^3-(4-chlorophenyl)-2,3-epoxybutanediamide], the melting point fell in the range of 175.2 to 175.8 °C. Besides, in data set [1], the IC50 was found to be 0.23 mg/L (≈ 0.565 µM) and the “SI (Selectivity Index = TC50/IC50)” value is 46.43. Also, in the data set on Vero cells, the “TC50 (half toxic concentration for Vero cells)” value was 10.68 mg/L.

Consider `Cc1c(Cl)cccc1NC(=O)[C@H]1O[C@@H]1C(=O)N(Cc1ccccc1)c1ccccc1` [Compound 13, (2S,3S)—N^2-benzyl-N^2-phenyl-N^3-(2-methyl-3-chlorophenyl)-2,3-epoxybutanediamide], for which the melting point lay within 119.4 to 120.2 °C. For the same compound, in data set [1], the IC50 was > 0.27 mg/L. Moreover, the “TC50 (half toxic concentration for Vero cells)” value in the data set with Vero cells stood at 1.19 mg/L.

As to `O=C(Nc1cccc(Br)c1)[C@H]1O[C@@H]1C(=O)N(Cc1ccccc1)c1ccccc1` [Compound 14, (2S,3S)—N^2-benzyl-N^2-phenyl-N^3-(3-bromophenyl)-2,3-epoxybutanediamide], the melting point was in the range of 177.5 to 178.2 °C. In data set [1], the IC50 worked out at 1.43 mg/L (≈ 3.17 µM) and the “SI (Selectivity Index = TC50/IC50)” value came out at 8.97. The “TC50 (half toxic concentration for Vero cells)” value in the data set on Vero cells was 12.83 mg/L.

With `O=C(Nc1ccccc1Br)[C@H]1O[C@@H]1C(=O)N(Cc1ccccc1)c1ccccc1` [Compound 15, (2S,3S)—N^2-benzyl-N^2-phenyl-N^3-(2-bromophenyl)-2,3-epoxybutanediamide], the melting point fell in the range of 113.2 to 114.3 °C. Also, in data set [1], the IC50 was determined as 0.47 mg/L (≈ 1.04 µM) and the “SI (Selectivity Index = TC50/IC50)” value came out at 3.04. For the same compound, the “TC50 (half toxic concentration for Vero cells)” value in the data set with Vero cells came to 1.43 mg/L.

The compound `O=C(Nc1nc2ccccc2s1)c1ccc(N(Cc2ccc(F)cc2)C(=O)[C@H]2O[C@@H]2C(=O)O)cc1` [Compound 16, (2S,3S)-3-((4-(benzo[d]thiazol-2-ylcarbamoyl)phenyl)(4-fluorobenzyl)carbamoyl)oxirane-2-carboxylic acid] registered a melting point of 200.6 to 201.3 °C. In addition, in data set [1], the IC50 was > 2.47 mg/L. Further, the “TC50 (half toxic concentration for Vero cells)” value in the data set on Vero cells worked out at 17.25 mg/L.

In turn, `COc1ccc(NC(=O)[C@H]2O[C@@H]2C(=O)N(Cc2ccc(F)cc2)c2ccc(C(=O)Nc3nc4ccccc4s3)cc2)cc1OC` [Compound 17, (2S,3S)—N^2-(4-(benzo[d]thiazol-2-ylcarbamoyl)phenyl)-N^3-(3,4-dimethoxyphenyl)-N^2-(4-fluorobenzyl)-2,3-epoxybutanediamide] showed a melting point of 205.6 to 206.3 °C. Also, in data set [1], the IC50 is 38.5 mg/L (≈ 61.4 µM) and the “SI (Selectivity Index = TC50/IC50)” value amounted to 3.00. For the same compound, the “TC50 (half toxic concentration for Vero cells)” value in the data set on Vero cells worked out at 115.47 mg/L.

As to `O=C(Nc1nc2ccccc2s1)c1ccc(N(Cc2ccc(F)cc2)C(=O)[C@H]2O[C@@H]2C(=O)Nc2cccc(Br)c2)cc1` [Compound 18, (2S,3S)—N^2-(4-(benzo[d]thiazol-2-ylcarbamoyl)phenyl)-N^3-(3-bromophenyl)-N^2-(4-fluorobenzyl)-2,3-epoxybutanediamide], the melting point was 206.3 to 207.1 °C. Besides, the IC50 in data set [1] was > 0.82 mg/L. Moreover, in the data set with Vero cells, the “TC50 (half toxic concentration for Vero cells)” value is 1.43 mg/L.

As for `O=C(Nc1nc2ccccc2s1)c1ccc(N(Cc2ccc(F)cc2)C(=O)[C@H]2O[C@@H]2C(=O)Nc2ccc(Cl)cc2)cc1` [Compound 19, (2S,3S)—N^2-(4-(benzo[d]thiazol-2-ylcarbamoyl)phenyl)-N^3-(4-chlorophenyl)-N^2-(4-fluorobenzyl)-2,3-epoxybutanediamide], the melting point fell in the range of 198.7 to 199.5 °C. Also, the IC50 in data set [1] is > 0.82 mg/L. In addition, the “TC50 (half toxic concentration for Vero cells)” value with Vero cells amounted to 1.43 mg/L.

Consider `COC(=O)c1cnc(NC(=O)[C@H]2O[C@@H]2C(=O)N(Cc2ccccc2)c2ccc(C(=O)Nc3nc4ccccc4s3)cc2)s1` [Compound 42, (2S,3S)—N^2-(4-(benzo[d]thiazol-2-ylcarbamoyl)phenyl)-N^2-benzyl-N^3-(5-methoxycarbonylthiazol-2-yl)-2,3-epoxybutanediamide], for which the IC50 in data set [1] was > 0.82 mg/L. Also, the “TC50 (half toxic concentration for Vero cells)” value in the data set on Vero cells was 4.28 mg/L.

On to `CCOC(=O)c1ccc(OCCC2CCN(c3ccc(C)nn3)CC2)cc1` [Pirodavir, reference compound], for which, in data set [1], the IC50 came out at 0.13 mg/L (≈ 0.352 µM) and the “SI (Selectivity Index = TC50/IC50)” value is 4.81. Further, the “TC50 (half toxic concentration for Vero cells)” value in the data set with Vero cells stood at 4.81 mg/L.
